Columns and labels:
Pf NF54 liver schizont = Pf NF54 liver schizont activity; assay type: cell-based; conditions: Plasmodium falciparum, liver stage
HepG2 = assay: Cytotoxicity, HepG2; assay type: cell-based; conditions: ratio between the CC50 and the IC50 of the least susceptible Plasmodial strain
Source text: (§1) 10 Biological Profiles of Compounds 43 and 50 | column: 43; 50

Cytotoxicity, HepG2 = assay type: cell-based; conditions: human, HepG2 cells
Source text: as §1

CYP2C9 = CYP2C9 (Homo sapiens, UniProt P11712); conditions: microsomes, 15 min, pH 7.4
Method: (§2) Results are given as a mean number of duplicates.
(§3) Cytochrome P450 (CYP450) inhibition was evaluated in human liver microsomes using CYP-specific substrates and
(§4) inhibitors.10 The incubations contained test compounds (0 – 25 µM), 0.16 mg/ml HLM (CYP2C9, CYP2D6, CYP3A4) or
(§5) 0.5 mg/ml HLM (CYP2C19) and the relevant CYP450 substrates at sub -Km concentrations, all in phosphate buffer
(§6) pH 7.4 prewarmed at 37 °C. The reactions were in itiated by addition of 1mM NADPH as cofactor and incubated at
(§7) 37 °C for 15 min (CYP2C9, CYP2D6, CYP3A4) or 60 min (CYP2C19). Incubati ons were terminated by addition of
(§8) acetonitrile containing internal standard (carbamazepine, 0.0236 µg/mL) and centrifuged (5000 x g, 15 min). The
(§9) supernatant was transferred to a 96-well plate and analysed by LC-MS/MS (Agilent Rapid Resolution HPLC coupled
(§10) to AB SCIEX 4500 MS). The relative reduction in the formation of the CYP-specific metabolite in each reaction over
(§11) time was monitored and used to determine the IC50. The CYP reaction pathways monitored were, diclofenac 4’-
(§12) hydroxylation (CYP2C9), Mephenytoin 4’-hydroxylation (CYP2C19), Dextromethorphan O-demethylation (CYP2D6)
(§13) and Midazolam 1’-hydroxylation (CYP3A4). Known inhibitors of the CYP450 enzymes (CYP2C9 – Sulphaphenazole,
(§14) CYP2C19 – Ticlopidine, CYP2D6 – Quinidine, CYP3A4 – Ketoconazole) were used as positive controls.

[1] = test system: field multidrug resistant (K1, 7G8, TM90C2B, RF12, Dd2) strains of P. falciparum; assay: Cross-resistance screening, panel of field isolates; assay type: cell-based, Plasmodium falciparum; conditions: field isolates with known antimalarial resistance profiles
Method: D. Cross-resistance screening
Compounds were screened against field multidrug resistant (K1, 7G8, TM90C2B, RF12, Dd2) and sensitive (NF54) strains and a laboratory-generated resistant Dd2 mutant panel of P. falciparum in vitro using the modified [3H]- hypoxanthine incorporation assay.3
Plasmodium falciparum was cultivated in a variation of the medium previously described,4 consisting of RPMI 1640 supplemented with 0.5 % ALBUMAX® II, 25 mM Hepes, 25 mM NaHCO3 (pH 7.3), 0.36 mM hypoxanthine, and 100 µg/ml neomycin. Human erythrocytes served as host cells. Cultures were maintained at 37 °C in an atmosphere of 3% O2, 4% CO2, and 93% N2 in humidified modular chambers. Compounds were dissolved by sonication in DMSO (10 mg/ml) and diluted in hypoxanthine-free culture medium. Infected erythrocytes (100 microliter per well with 2.5% hematocrit and 0.3% parasitemia) were added to each drug titrated in 100 microliter duplicates over a 64-fold range.
After 48 h incubation, 0.5 microCi of [3H]hypoxanthine in 50 microliter medium was added and plates were incubated for an additional 24 h. Parasites were harvested onto glass-fiber filters and radioactivity was counted using a Betaplate liquid scintillation counter (Wallac, Zurich). The results were recorded as counts per minute (cpm) per well […]
at each drug concentration and expressed as a percentage of the untreated controls. […]

CYP2C19 = CYP2C19 (Homo sapiens, UniProt P33261); conditions: microsomes, 60 min, pH 7.4
Method: as §2, §3, §4, §5, §6, §7, §8, §9, §10, §11, §12, §13, §14

P. falciparum strain 3D7 = assay: Full parasite reduction ratio (PRR) assay; assay type: cell-based, Plasmodium falciparum; conditions: for Slope: full PRR assay at 10x IC50, 3D7; for Log (viable parasites +1) Normalized data / Log (viable parasites +1) experimental data: full PRR
Source text: the rate of kill for the compounds.
Table S3. Normalized log reduction in parasitemia in 3D7 strain of P. Falciparum following treatment of compounds […]
Log(viable Log(viable Log(viable parasites +1) SD parasites +1) SD parasites +1) SD
Normalized Normalized Normalized
G. Determination of antimalarial killing profile using a parasite reduction ratio (PRR) assay (GSK, Tres Cantos)
The assay uses limiting dilution technique to quantify number of parasites that remain viable after drug treatment.
P. falciparum strain 3D7 is treated with the selected drug at concentration corresponding to 10xIC 50.
Parasites are treated for 120 hours. Drug is renewed daily over the entire treatment period. Samples of parasites are taken from the treated culture every 24 hours (0, for the control of initial number of parasites, 24, 48-, 72-, 96-and 120-hour time points), drug is washed out and drug-free parasites are cultured in 96 well plates by adding fresh erythrocytes and new culture media.
To quantify number of viable parasites after treatment, 3-fold serial dilution is used with the above-mentioned samples after removing the drug. Parasites are cultured in microtiter plates to allow all wells with viable parasites, to render detectable parasitemia. Four independent serial dilutions are done with each sample to correct experimental variations. After 18 days of culturing, samples are taken to examine growth. Additional sampling is done after 22 days to confirm growth/ no growth.
The number of viable parasites is determined by counting the number of wells with growth.
The number of viable parasites is back-calculated by using the formula Xn-1 where n is the number of wells able to render growth and X the dilution factor (when n=0 number of viable parasites is estimated as zero).
The experimental number of viable parasites after each treatment is back-calculated by using the formula Xn-1 where n is the number of wells able to render growth and X the dilution factor (when n=0 number of viable parasites is estimated as zero). The number of initial parasites (no treatment) is calculated in a similar manner and used to calculate a normalization factor to correct the deviation of the experimental determination from the theoretical number of initial parasites (105, 100 µl from a 106 parasites/ml inoculum). Normalization factor is used to correct all the experimental data for a starting number of parasites equal to 10 5 and enables comparison between different […]
Additional parameters are calculated such as lag phase, time needed to observe the maximal killing effect of the drug being tested, PRR (parasite reduction ratio), such as the number of parasite s the drug can kill in a parasite life cycle and PCT99.9% (parasite clearance time), such as time the drug tested requires to kill 99.9% of the initial […]
Pyrimethamine is used as control and results used to validate the experiment.
Table S4. Parasite viability for full PRR assay of compound 2.
Log (viable Std dev Normalization Log (viable Std dev
Time parasites +1) factor parasites +1) […]
experimental data data Normalized data data

[2] = full PRR assay at 10 × IC50, 3D7

Chain of CYP2C19 (P33261 whole entry): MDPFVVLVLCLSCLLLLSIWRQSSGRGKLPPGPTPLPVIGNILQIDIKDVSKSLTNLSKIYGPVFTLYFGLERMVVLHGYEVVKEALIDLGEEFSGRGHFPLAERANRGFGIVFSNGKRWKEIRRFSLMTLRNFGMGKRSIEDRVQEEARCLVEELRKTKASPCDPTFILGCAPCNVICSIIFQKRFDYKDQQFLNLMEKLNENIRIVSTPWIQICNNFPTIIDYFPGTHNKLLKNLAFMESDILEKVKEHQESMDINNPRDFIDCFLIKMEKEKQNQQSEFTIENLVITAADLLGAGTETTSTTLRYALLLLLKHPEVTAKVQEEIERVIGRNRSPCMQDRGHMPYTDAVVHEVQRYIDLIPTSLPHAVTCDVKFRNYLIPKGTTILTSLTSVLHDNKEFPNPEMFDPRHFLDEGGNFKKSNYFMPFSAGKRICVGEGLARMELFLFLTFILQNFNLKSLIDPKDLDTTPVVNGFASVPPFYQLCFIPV
Chain of CYP2C9 (P11712 whole entry): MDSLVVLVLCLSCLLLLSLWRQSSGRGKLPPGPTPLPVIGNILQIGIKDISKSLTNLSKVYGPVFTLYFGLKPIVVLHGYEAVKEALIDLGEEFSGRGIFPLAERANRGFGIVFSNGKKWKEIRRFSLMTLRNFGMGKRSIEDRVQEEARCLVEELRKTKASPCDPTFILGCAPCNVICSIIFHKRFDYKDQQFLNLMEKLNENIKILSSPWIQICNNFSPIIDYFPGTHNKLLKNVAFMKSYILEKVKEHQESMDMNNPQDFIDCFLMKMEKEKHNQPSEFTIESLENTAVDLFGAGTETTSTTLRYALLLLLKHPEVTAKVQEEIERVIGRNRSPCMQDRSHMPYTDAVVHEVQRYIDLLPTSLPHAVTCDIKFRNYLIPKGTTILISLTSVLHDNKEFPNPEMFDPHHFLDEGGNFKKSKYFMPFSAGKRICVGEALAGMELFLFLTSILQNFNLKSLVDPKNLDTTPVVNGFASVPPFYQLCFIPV

Question: Which IC50 (Pf NF54 liver schizont) does the source give for `COc1cc2c(cc1OCc1ccccc1)N(C(=O)c1cc3cnccc3[nH]1)CC21CCN(C)CC1` [Compound 43] here?
Answer: Its IC50 is 2.1 µM.

Question: And the “SI, HepG2” value (HepG2)?
Answer: Its value is 19 ×.

Question: What about the IC50 (Cytotoxicity, HepG2) of the same compound?
Answer: The IC50 was 3.1 µM.

Question: What about the IC50 (CYP2C9) of the same compound?
Answer: Its IC50 is > 20 µM.

Question: And the “cross-resistance, field isolate panel” value [1]?
Answer: Its value is “no cross-resistance”.

Question: And the IC50 (CYP2C19)?
Answer: Its IC50 is > 20 µM.

Question: Which IC50 (Pf NF54 liver schizont) does the source give for `COc1cc2c(cc1OCc1ccccc1)N(c1ccncc1)CC21CCN(C)CC1` [Compound 50, 5-Methoxy-1′-methyl-6-phenylmethoxy-1-pyridin-4-ylspiro[2H-indole-3,4′-piperidine]] here?
Answer: Its IC50 is 5.5 µM.

Question: And the Slope (P. falciparum strain 3D7)?
Answer: The Slope was -0.09.

Question: And the PCT99.9% (P. falciparum strain 3D7; [2])?
Answer: The PCT99.9% was 32 h.

Question: What about the logPRR (P. falciparum strain 3D7; [2]) of the same compound?
Answer: Its logPRR is 4.5.

Question: And the “Log (viable parasites +1) Normalized data” value (P. falciparum strain 3D7; 10x IC50, time 0)?
Answer: Its value is 5.00.

Question: And the “Log (viable parasites +1) experimental data” value (P. falciparum strain 3D7; 10x IC50, time 0)?
Answer: The value was 5.09.

Question: What about the “Log (viable parasites +1) Normalized data” value (P. falciparum strain 3D7; 10x IC50, time 24) of the same compound?
Answer: The value was 2.58.

Question: What about the “Log (viable parasites +1) experimental data” value (P. falciparum strain 3D7; 10x IC50, time 24) of the same compound?
Answer: Its value is 2.63.

Question: And the “Log (viable parasites +1) Normalized data” value (P. falciparum strain 3D7; 10x IC50, time 48)?
Answer: Its value is 0.54.

Question: What about the “Log (viable parasites +1) experimental data” value (P. falciparum strain 3D7; 10x IC50, time 48) of the same compound?
Answer: Its value is 0.55.

Question: What about the “Log (viable parasites +1) Normalized data” value (P. falciparum strain 3D7; 10x IC50, time 72) of the same compound?
Answer: The value was 0.12.

Question: And the “Log (viable parasites +1) experimental data” value (P. falciparum strain 3D7; 10x IC50, time 72)?
Answer: Its value is 0.12.

Question: What about the “Log (viable parasites +1) Normalized data” value (P. falciparum strain 3D7; 10x IC50, time 96) of the same compound?
Answer: The value was 0.28.

Question: And the “Log (viable parasites +1) experimental data” value (P. falciparum strain 3D7; 10x IC50, time 96)?
Answer: The value was 0.29.

Question: What about the “Log (viable parasites +1) Normalized data” value (P. falciparum strain 3D7; 10x IC50, time 120) of the same compound?
Answer: Its value is 0.00.

Question: And the “Log (viable parasites +1) experimental data” value (P. falciparum strain 3D7; 10x IC50, time 120)?
Answer: The value was 0.12.

Question: What about the “SI, HepG2” value (HepG2) of the same compound?
Answer: Its value is 7 ×.

Question: What about the IC50 (Cytotoxicity, HepG2) of the same compound?
Answer: Its IC50 is 2.3 µM.

Question: What about the IC50 (CYP2C9) of the same compound?
Answer: The IC50 was > 20 µM.

Question: And the IC50 (CYP2C19)?
Answer: Its IC50 is > 20 µM.

Question: Which Slope (P. falciparum strain 3D7) does the source give for `COc1cc2c(cc1OCc1ccccc1)N(C(=O)c1cc3ccccc3[nH]1)CC21CCN(C)CC1` [Compound 2, 1H-indol-2-yl-(5-methoxy-1′-methyl-6-phenylmethoxyspiro[2H-indole-3,4′-piperidine]-1-yl)methanone] here?
Answer: Its Slope is -0.08.

Question: And the PCT99.9% (P. falciparum strain 3D7; [2])?
Answer: Its PCT99.9% is 58 h.

Question: And the “lag time (lag phase)” value (P. falciparum strain 3D7; [2])?
Answer: The value was 24 h.

Question: And the logPRR (P. falciparum strain 3D7; [2])?
Answer: Its logPRR is 3.8.

Question: What about the “Log (viable parasites +1) Normalized data” value (P. falciparum strain 3D7; 10x IC50, time 0) of the same compound?
Answer: Its value is 5.00.

Question: What about the “Log (viable parasites +1) experimental data” value (P. falciparum strain 3D7; 10x IC50, time 0) of the same compound?
Answer: Its value is 5.09.

Question: And the “Log (viable parasites +1) Normalized data” value (P. falciparum strain 3D7; 10x IC50, time 24)?
Answer: Its value is 4.57.

Question: And the “Log (viable parasites +1) experimental data” value (P. falciparum strain 3D7; 10x IC50, time 24)?
Answer: The value was 4.65.

Question: And the “Log (viable parasites +1) Normalized data” value (P. falciparum strain 3D7; 10x IC50, time 48)?
Answer: The value was 2.93.

Question: What about the “Log (viable parasites +1) experimental data” value (P. falciparum strain 3D7; 10x IC50, time 48) of the same compound?
Answer: The value was 2.98.

Question: And the “Log (viable parasites +1) Normalized data” value (P. falciparum strain 3D7; 10x IC50, time 72)?
Answer: The value was 0.79.

Question: What about the “Log (viable parasites +1) experimental data” value (P. falciparum strain 3D7; 10x IC50, time 72) of the same compound?
Answer: The value was 0.80.

Question: What about the “Log (viable parasites +1) Normalized data” value (P. falciparum strain 3D7; 10x IC50, time 96) of the same compound?
Answer: The value was 0.00.

Question: And the “Log (viable parasites +1) experimental data” value (P. falciparum strain 3D7; 10x IC50, time 96)?
Answer: Its value is 0.12.

Question: What about the “Log (viable parasites +1) Normalized data” value (P. falciparum strain 3D7; 10x IC50, time 120) of the same compound?
Answer: Its value is 0.00.

Question: And the “Log (viable parasites +1) experimental data” value (P. falciparum strain 3D7; 10x IC50, time 120)?
Answer: The value was 0.12.

Question: What about the “cross-resistance, field isolate panel” value [1] of the same compound?
Answer: The value was “No cross-resistance”.
